Earlier results on 3 compounds are cited in US9056184B2, “Methods for renal denervation” (priority 2010, dated 2015).

The subject of one data set is CYP3A4. Conditions: in vivo.
For data set [1] the following is noted: after initiation of therapy.
Data set [2] has as its target tetrodotoxin-sensitive voltage-gated sodium channel (TTX-s Na+ channel). The following applies: read-out: binding affinity.
Data set [3] concerns the target tetrodotoxin-resistant voltage-gated sodium channel (TTX-r Na+ channel).
For data set [4] the following is noted: in vivo.

With `NC(=O)N1c2ccccc2C=Cc2ccccc21` [carbamazepine, Carbamazepine], the “time for auto-induction to reach a plateau” value in the data set on CYP3A4 is 5 to 7 days. Also, the “time to stable carbamazepine concentrations” value in data set [1] is listed as 2-3 weeks.

With `NC1=N[C@H](O)[C@H]2[C@H]3O[C@]4(O)O[C@@H]([C@@H](O)[C@@]2(N1)[C@@H]4O)[C@]3(O)CO` [Tetrodotoxin], the Kd in data set [2] is 5 to 15 nM. The binding affinity entry in data set [3] is listed as “low micromolar”.

On to `[Li]` [lithium], for which, in data set [4], the toxic amounts is recorded as above 1.5 mmol/L.
